Test results published in patent publication US20200397817A1, “METHOD FOR PREDICTING AND MODULATING SUSCEPTIBILITY OF CANCER CELL TO PROGRAMMED CELL DEATH” (SHIEH, Darbin, priority 2017, published 2020).

What was measured:
[1] = test system: ZVI sensitive OEC-M1 cells; experiment: Cell survival assay, ZVI@CMC NPs plus ROS scavenger, OEC-M1; type: cell-based; details: 48 h, FIG. 4; for cell viability recovered as compared with ZVI@CMC NPs alone: ROS scavenger together with 5 μg/mL ZVI@CMC NPs
Experimental: (§1) Cytotoxicity of the ZVI NPs was evaluated by the MTT assay using 3-(4,5-dimethylthiazol-2-yl)-2,5-diphenyltetrazolium bromide. Log-phase OSCC cells were seeded at a density of 5000 cells per well in a 96-well culture plate and incubated for 16 h. The attached cells were then incubated with a series of concentrations of ZVI NPs for 48 h. Subsequently, culture medium of the cells were replaced by fresh complete medium contained 0.5 mg/mL of MTT and the cells were incubated at 37° C. for 1 h. After removing the medium, the resulting MTT crystals were dissolved in DMSO and measured for their optical absorbance at 550 nm to determine viability of the cells.
(§2) Additionally, various cell survival assays were conducted by incubating the cells with 5 μg/mL of ZVI@CMC NPs in combination with an iron chelator (eg. 1 μM of 1, 10-phenanthroline or 1 μM of desferoxamine (DFO)), a ROS scavenger (eg. 100 μM of vitamin C, 100 μM of vitamin E, 100 μM of TEMPOL, 5 μM of mito-lEMPOL, 100 μM Trolox, 100 μM Tiron, or 500 μM NAC), a ferroptosis inhibitor (eg. 5 μM of liproxstatin and 50 μM of ferrostatin) or a ferroptosis inducer (eg. 0.05 μM of RSL-3 or 1 μM of erastin) for 48 h.

[2] = test system: ZVI refractory HSC-3, SAS and OEC-M1 R3 cells; experiment: Cell survival assay, ZVI@CMC NPs plus ferroptosis inducer, refractory cells; type: cell-based; details: ferroptosis inducer in combination with 5 μg/mL ZVI@CMC NPs, 48 h; FIG. 10A
Experimental: as §1, §2

ZVI refractory cells = experiment: Depolarized cells, ZVI@CMC NPs plus ferroptosis inducer, refractory cells; type: cell-based; details: ferroptosis inducer with ZVI@CMC NPs; FIG. 10A
ZVI refractory SAS cells = experiment: SAS tumor xenograft in SCID mice, tumor growth; type: in vivo; details: 20 mg/kg RSL-3 together with 25 mg/kg ZVI@CMC NPs, tail vein, every other day x4; FIGS. 10B-10D
Excerpt: Six to eight week old male mice with severe combined immunodeficiency (SCID) were used as the hosts for OSCC tumor xenografts. 3×10^6 SAS cells were subcutaneously injected into the dorsal flank of the mice to establish tumor lesions. A visible tumor mass was normally observed 1.5 to 2 weeks after the injection. When the tumor size reached approximately 50 mm^3, the mice were randomly assigned to four groups, including a PBS control group, a RSL-3 treatment group, a ZVI@CMC NP treatment group and a ZVI@CMC NP+RSL-3 treatment group (n=4 per group). PBS solution, 20 mg/kg of RSL-3 and 25 mg/kg of ZVI@CMC NPs were individually administered to the mice through tail vein injection once every other day for four times before the final tumor size in every group was measured. The Tumor volumes were measured by a digital caliper and calculated using the formula: […].

[3] = test system: ZVI sensitive cells OEC-M1 and SCC-9; experiment: Cell survival assay, ZVI@CMC NPs plus co-agent, OEC-M1 and SCC-9; details: added to 5 μg/mL ZVI@CMC NPs, 48 h; FIG. 7B
Experimental: as §1, §2

[4] = test system: ZVI sensitive SCC-9 and OEC-M1 cell lines; experiment: Mitochondrial membrane potential (MitoTracker flow cytometry), sensitive lines; type: cell-based; details: added to ZVI@CMC NPs; FIG. 7C
Experimental: Depolarization of the ZVI NP treated cells was assessed by double staining with 50 nM of MitoTracker Green, a commercial dye for indicating total mitochondrial mass, and 100 nM of MitoTracker Deep Red, another commercial dye for indicating mitochondria membrane potential (ΔΨ), at 37° C. for 30 min, followed by analysis of red fluorescent signals under an excitation wavelength of 644 nm and an emission wavelength of 665 nm and green fluorescent signals under an excitation wavelength of 490 nm and an emission wavelength of 516 nm by a BD Canto II Flow Cytometer.

## CC(=O)N[C@@H](CS)C(=O)O [NAC, N-acetylcysteine]
[1]; cotreatment with 5 μg/mL ZVI@CMC NPs
  effect of co-agent on cytotoxicity of ZVI@CMC NPs: reduce cytotoxicity

## COC(=O)c1ccc([C@H]2c3[nH]c4ccccc4c3C[C@H](C(=O)OC)N2C(=O)CCl)cc1 [RSL-3, methyl (1S,3R)-2-(2-chloroacetyl)-1-(4-methoxycarbonylphenyl)-1,3,4,9-tetrahydropyrido[3,4-b]indole-3-carboxylate]
[2]
  cell viability as compared with ZVI@CMC NPs alone: significantly reduced
ZVI refractory cells
  percentage of depolarized cells: dramatically increased
ZVI refractory SAS cells
  tumor growth as compared to ZVI@CMC NPs or RSL-3 alone: significantly delayed

## CC1(C)CC(O)CC(C)(C)N1[O] [TEMPOL, 4-hydroxy-2,2,6,6-tetramethylpiperidin-1-oxyl]
[1]
  cell viability recovered as compared with ZVI@CMC NPs alone: about 50%

## O=S(=O)([O-])c1cc(O)c(O)c(S(=O)(=O)[O-])c1.[Na+].[Na+] [Tiron, disodium 4,5-dihydroxy-1,3-benzenedisulfonate]
[1]
  cell viability recovered as compared with ZVI@CMC NPs alone: about 50%

## Cc1c(C)c2c(c(C)c1O)CCC(C)(C(=O)O)O2 (stereo not shown) [Trolox, 6-Hydroxy-2,5,7,8-tetramethylchroman-2-carboxylic acid]
[1]
  cell viability recovered as compared with ZVI@CMC NPs alone: about 50%

## CCOc1ccccc1-n1c(C(C)N2CCN(C(=O)COc3ccc(Cl)cc3)CC2)nc2ccccc2c1=O (stereo not shown) [erastin, 2-[1-[4-[2-(4-chlorophenoxy)acetyl]piperazin-1-yl]ethyl]-3-(2-ethoxyphenyl)quinazolin-4-one]
[2]
  cell viability as compared with ZVI@CMC NPs alone: significantly reduced
ZVI refractory cells
  percentage of depolarized cells: dramatically increased

## CCOC(=O)c1ccc(NC2CCCCC2)c(N)c1 [ferrostatin]
[3]
  recovery of cell viability of ZVI@CMC NP treated cells: ~50%
[4]
  percentage of depolarized cells caused by ZVI@CMC NP induced mitochondrial hyperoxidation: reduce the percentage of depolarized cells

## Clc1cccc(CN=C2Nc3ccccc3NC23CCNCC3)c1 [liproxstatin]
[3]
  recovery of cell viability of ZVI@CMC NP treated cells: ~50%
[4]
  percentage of depolarized cells caused by ZVI@CMC NP induced mitochondrial hyperoxidation: reduce the percentage of depolarized cells
